Measurements reported in patent publication US10765114B2, “4-amino-6-(pyridyl and 2-substitutedphenyl)-picolinates and 6-amino-2-(pyridyl and 2-substitutedphenyl)-pyrimidine-4-carboxylates and their use as herbicides” (Dow AgroSciences LLC, priority 2013, dated 2020).

What was measured:
Test in all cases: Post-Emergent Test III (Wheat and Barley)
[1] = system: HORSS; format: in vivo; conditions: for pest or weed control at 35 g/ha / pest or weed control at 70 g/ha / pest or weed control at 140 g/ha: Hordeum vulgare, post-emergence, 504 h, postemergence, read-out: Visual Growth Reduction (%) 21 Days After Application, HORSS; for pest or weed control at 35 g/ha: 35 g ai/ha; for pest or weed control at 70 g/ha: 70 g ai/ha; for pest or weed control at 140 g/ha: 140 g ai/ha; for GR20, HORSS: effective dose for growth reduction of 20 percent, probit analysis
Protocol: (§1) Seeds of the desired test plant species were planted in Sun Gro MetroMix® 306 planting mixture, which typically has a pH of 6.0 to 6.8 and an organic matter content of about 30 percent, in plastic pots with a surface area of 103.2 square centimeters (cm^2). When required to ensure good germination and healthy plants, a fungicide treatment and/or other chemical or physical treatment was applied. The plants were grown for 7-36 days in a greenhouse with an approximate 14 h photoperiod which was maintained at about 18° C. during the day and 17° C. during the night. Nutrients and water were added on a regular basis and supplemental lighting was provided with overhead metal halide 1000-Watt lamps as necessary. The plants were employed for testing when they reached the second or third true leaf stage.
(§2) A weighed amount, determined by the highest rate to be tested, of each test compound was placed in a 25 mL glass vial and was dissolved in 4 mL of a 97:3 v/v mixture of acetone and DMSO to obtain concentrated stock solutions. […] The concentrated stock solutions obtained were diluted with 20 mL of an aqueous mixture containing acetone, water, isopropyl alcohol, DMSO, Agri-Dex crop oil concentrate, and X-77 surfactant in a 48:39:10:1.5:1.5:0.02 v/v ratio to obtain spray solutions containing the highest application rates. Additional application rates were obtained by serial dilution of 12 mL of the high rate solution into a solution containing 2 mL of 97:3 v/v mixture of acetone and DMSO and 10 mL of an aqueous mixture containing acetone, water, isopropyl alcohol, DMSO, Agri-Dex crop oil concentrate, and X-77 surfactant in a 48:39:10:1.5:1.5:0.02 v/v ratio to obtain ½×, ¼×, ⅛× and 1/16× rates of the high rate. Compound requirements are based upon a 12 mL application volume at a rate of 187 liters per hectare (L/ha). Formulated compounds were applied to the plant material with an overhead Mandel track sprayer equipped with 8002E nozzles calibrated to deliver 187 L/ha over an application area of 0.503 square meters at a spray height of 18 inches (43 cm) above the average plant canopy height. Control plants were sprayed in the same manner with the solvent blank.
(§3) The treated plants and control plants were placed in a greenhouse as described above and watered by subirrigation to prevent wash-off of the test compounds. After 21 dAYS, the condition of the test plants as compared with that of the untreated plants was determined visually and scored on a scale of 0 to 100 percent where 0 corresponds to no injury and 100 corresponds to complete kill and presented as indicated in Table A.
(§4) By applying the well-accepted probit analysis as described by J. Berkson in Journal of the American Statistical Society, 48, 565 (1953) and by D. Finney in “Probit Analysis” Cambridge University Press (1952), herbicidal injury of a specific compound at various rates can be used to calculate GR10, GR20, GR50, GR80 and GR90 values, which are defined as growth reduction factors that correspond to the effective dose of herbicide required to provide plant growth reduction (GR) of 10 percent, 20 percent, 50 percent, 80 percent and 90 percent, respectively. Probit analysis was applied to data collected from multiple dose rates of individual compounds utilizing the procedures explained in the following examples. The analysis of those dose rates is captured in the following tables.

[2] = system: TRZSS; format: in vivo; conditions: for pest or weed control at 35 g/ha / pest or weed control at 70 g/ha / pest or weed control at 140 g/ha: Triticum aestivum, post-emergence, 504 h, postemergence, read-out: Visual Growth Reduction (%) 21 Days After Application, TRZSS; for pest or weed control at 35 g/ha: 35 g ai/ha; for pest or weed control at 70 g/ha: 70 g ai/ha; for pest or weed control at 140 g/ha: 140 g ai/ha; for GR20, TRZSS: effective dose for growth reduction of 20 percent, probit analysis
Protocol: as §1, §2, §3, §4

[3] = system: APESV (windgrass); format: in vivo, Apera spica-venti; conditions: for pest or weed control at 35 g/ha / pest or weed control at 70 g/ha / pest or weed control at 140 g/ha: Apera spica-venti, post-emergence, 504 h, postemergence, read-out: Visual Growth Reduction (%) 21 Days After Application, APESV; for pest or weed control at 35 g/ha: 35 g ai/ha; for pest or weed control at 70 g/ha: 70 g ai/ha; for pest or weed control at 140 g/ha: 140 g ai/ha; for GR50, APESV: effective dose for growth reduction of 50 percent; for GR50, APESV / GR80, APESV: probit analysis; for GR80, APESV: effective dose for growth reduction of 80 percent
Protocol: as §1, §2, §3, §4

[4] = system: SETVI (green foxtail); format: in vivo, Setaria viridis; conditions: for pest or weed control at 35 g/ha / pest or weed control at 70 g/ha / pest or weed control at 140 g/ha: Setaria viridis, post-emergence, 504 h, postemergence, read-out: Visual Growth Reduction (%) 21 Days After Application, SETVI; for pest or weed control at 35 g/ha: 35 g ai/ha; for pest or weed control at 70 g/ha: 70 g ai/ha; for pest or weed control at 140 g/ha: 140 g ai/ha; for GR50, SETVI: effective dose for growth reduction of 50 percent; for GR50, SETVI / GR80, SETVI: probit analysis; for GR80, SETVI: effective dose for growth reduction of 80 percent
Protocol: as §1, §2, §3, §4

[5] = system: KCHSC (kochia); format: in vivo, Kochia scoparia; conditions: for pest or weed control at 35 g/ha / pest or weed control at 70 g/ha / pest or weed control at 140 g/ha: Bassia scoparia, post-emergence, 504 h, postemergence, read-out: Visual Growth Reduction (%) 21 Days After Application, KCHSC; for pest or weed control at 35 g/ha: 35 g ai/ha; for pest or weed control at 70 g/ha: 70 g ai/ha; for pest or weed control at 140 g/ha: 140 g ai/ha; for GR50, KCHSC: effective dose for growth reduction of 50 percent; for GR50, KCHSC / GR80, KCHSC: probit analysis; for GR80, KCHSC: effective dose for growth reduction of 80 percent
Protocol: as §1, §2, §3, §4

| SMILES | pest or weed control at 35 g/ha [1] | pest or weed control at 70 g/ha [1] | pest or weed control at 140 g/ha [1] | GR20, HORSS [1] | pest or weed control at 35 g/ha [2] | pest or weed control at 70 g/ha [2] | pest or weed control at 140 g/ha [2] | GR20, TRZSS [2] | pest or weed control at 35 g/ha [3] | pest or weed control at 70 g/ha [3] | GR50, APESV [3] | GR80, APESV [3] | pest or weed control at 35 g/ha [4] | pest or weed control at 70 g/ha [4] | GR50, SETVI [4] | GR80, SETVI [4] | pest or weed control at 35 g/ha [5] | pest or weed control at 70 g/ha [5] | GR50, KCHSC [5] | GR80, KCHSC [5] | other results |
| --- | --- | --- | --- | --- | --- | --- | --- | --- | --- | --- | --- | --- | --- | --- | --- | --- | --- | --- | --- | --- | --- |
| COC(=O)c1nc(-c2ccc(C3CC3)nc2)c(F)c(N)c1Cl [Compound 49] | 75 to 84% | 85 to 94% | 85 to 94% | 1 g ai/ha | 75 to 84% | 85 to 94% | 85 to 94% | 1 g ai/ha | 85 to 94% | 75 to 84% | 1 g ai/ha | 24 g ai/ha | 30 to 44% | 95 to 100% | 28 g ai/ha | 57 g ai/ha | 95 to 100% | 95 to 100% | 9 g ai/ha | 17 g ai/ha | pest or weed control at 140 g/ha [3]: 85 to 94%; pest or weed control at 140 g/ha [4]: 95 to 100%; pest or weed control at 140 g/ha [5]: 85 to 94% |
| Nc1c(F)c(-c2ccc(C3CC3)nc2)nc(C(=O)O)c1Cl [Compound 36, 4-amino-5-chloro-6′-cyclopropyl-3-fluoro-[2,3′-bipyridine]-6-carboxylic acid] | 60 to 74% | 75 to 84% |  | 1 g ai/ha | 60 to 74% | 75 to 84% |  | 1 g ai/ha | 45 to 59% | 85 to 94% | 24 g ai/ha | 53 g ai/ha | 30 to 44% | 45 to 59% | 59 g ai/ha | >140 g ai/ha | 45 to 59% | 60 to 74% | 34 g ai/ha | 108 g ai/ha |  |
| COC(=O)c1nc(-c2ccc(C(F)(F)F)nc2)c(F)c(N)c1Cl [Compound 59, methyl 4-amino-5-chloro-3-fluoro-6′-(trifluoromethyl)-[2,3′-bipyridine]-6-carboxylate] | 75 to 84% | 75 to 84% |  | 4 g ai/ha | 60 to 74% | 75 to 84% |  | 4 g ai/ha | 30 to 44% | 75 to 84% | 42 g ai/ha | 72 g ai/ha | 45 to 59% | 85 to 94% | 34 g ai/ha | 61 g ai/ha | 60 to 74% | 75 to 84% | 27 g ai/ha | 57 g ai/ha |  |
| Cc1c(-c2ccc(C(F)(F)F)nc2)nc(C(=O)O)c(Cl)c1N [Compound 51, 4-amino-5-chloro-3-methyl-6′-(trifluoromethyl)-[2,3′-bipyridine]-6-carboxylic acid] | 60 to 74% | 75 to 84% |  | 1 g ai/ha | 60 to 74% | 75 to 84% |  | 1 g ai/ha | 0 to 29% | 60 to 74% | 63 g ai/ha | 139 g ai/ha | 75 to 84% | 85 to 94% | 26 g ai/ha | 47 g ai/ha | 0 to 29% | 0 to 29% |  |  |  |
| COC(=O)c1nc(-c2ccc(Cl)c(F)c2OC)c(F)c(N)c1Cl [Compound 39, methyl 4-amino-3-chloro-6-(4-chloro-3-fluoro-2-methoxyphenyl)-5-fluoropicolinate] | 30 to 44% | 60 to 74% | 75 to 84% | 23 g ai/ha | 85 to 94% | 95 to 100% | 95 to 100% | 11 g ai/ha | 30 to 44% | 60 to 74% | 75 g ai/ha | >140 g ai/ha | 0 to 29% | 0 to 29% | >140 g ai/ha | >140 g ai/ha | 85 to 94% | 95 to 100% | 6 g ai/ha | 21 g ai/ha | pest or weed control at 140 g/ha [3]: 60 to 74%; pest or weed control at 140 g/ha [4]: 45 to 59%; pest or weed control at 140 g/ha [5]: 95 to 100% |
